# Measurements from paper PMC11345399 (The Journal of Biological Chemistry, 2024).
# Several values for one entry are separate records, joined by “and”; a condition that tells them apart may be missing. Equal entries are not always repeated.
# Columns and labels:
# [1] = biological target: PIV-5 RdRp complex (Parainfluenza virus 5, UniProt Q88434)
# [2] = biological target: T1, HRV-16 RdRp (Human rhinovirus 16, UniProt Q82122); assay type: biochemical
# [3] = test system: EV-71 RdRp; assay type: biochemical
# [4] = biological target: SARS-CoV-2 RdRp complex (Severe acute respiratory syndrome coronavirus 2, UniProt P0DTD1)
# [5] = biological target: RSV RdRp complex (Human respiratory syncytial virus A, UniProt P28887)
# [6] = biological target: HPIV-3 RdRp (Human parainfluenza 3 virus, UniProt P12577); assay type: biochemical
# [7] = test system: EV-71 RdRp; assay type: biochemical; remark: listed apart in the source
# [8] = biological target: HMPV RdRp complex (Human metapneumovirus, UniProt Q6WB93)
# [9] = biological target: EV-71 RdRp (3Dpol) (Enterovirus A71, UniProt E5RPG3)
# [10] = biological target: MERS-CoV RdRp (Middle East respiratory syndrome-related coronavirus, UniProt K9N7C7); assay type: biochemical
# [11] = test system: EV-71 RdRp; assay type: biochemical; remark: listed apart in the source
# [12] = biological target: RSV RdRp (Human respiratory syncytial virus A, UniProt P28887); assay type: biochemical
# [13] = biological target: SARS-CoV-2 RdRp (Severe acute respiratory syndrome coronavirus 2, UniProt P0DTD1); assay type: biochemical
# [14] = biological target: HRV-16 RdRp (3Dpol) (Human rhinovirus 16, UniProt Q82122)
# [15] = biological target: T1, HRV-16 RdRp; assay type: biochemical; remark: listed apart in the source
# [16] = biological target: human mitochondrial RNA polymerase (h-mtRNAP) (Homo sapiens, UniProt O00411); assay type: biochemical
# [17] = biological target: T1, HRV-16 RdRp; assay type: biochemical; remark: listed apart in the source
# [18] = biological target: MERS-CoV RdRp complex (Middle East respiratory syndrome-related coronavirus, UniProt K9N7C7)
# [19] = biological target: HMPV RdRp (Human metapneumovirus, UniProt Q6WB93); assay type: biochemical
# [20] = biological target: PIV-5 RdRp (Parainfluenza virus 5, UniProt Q88434); assay type: biochemical
# Chain of human mitochondrial RNA polymerase (h-mtRNAP) (O00411 42-1230 limits assumed): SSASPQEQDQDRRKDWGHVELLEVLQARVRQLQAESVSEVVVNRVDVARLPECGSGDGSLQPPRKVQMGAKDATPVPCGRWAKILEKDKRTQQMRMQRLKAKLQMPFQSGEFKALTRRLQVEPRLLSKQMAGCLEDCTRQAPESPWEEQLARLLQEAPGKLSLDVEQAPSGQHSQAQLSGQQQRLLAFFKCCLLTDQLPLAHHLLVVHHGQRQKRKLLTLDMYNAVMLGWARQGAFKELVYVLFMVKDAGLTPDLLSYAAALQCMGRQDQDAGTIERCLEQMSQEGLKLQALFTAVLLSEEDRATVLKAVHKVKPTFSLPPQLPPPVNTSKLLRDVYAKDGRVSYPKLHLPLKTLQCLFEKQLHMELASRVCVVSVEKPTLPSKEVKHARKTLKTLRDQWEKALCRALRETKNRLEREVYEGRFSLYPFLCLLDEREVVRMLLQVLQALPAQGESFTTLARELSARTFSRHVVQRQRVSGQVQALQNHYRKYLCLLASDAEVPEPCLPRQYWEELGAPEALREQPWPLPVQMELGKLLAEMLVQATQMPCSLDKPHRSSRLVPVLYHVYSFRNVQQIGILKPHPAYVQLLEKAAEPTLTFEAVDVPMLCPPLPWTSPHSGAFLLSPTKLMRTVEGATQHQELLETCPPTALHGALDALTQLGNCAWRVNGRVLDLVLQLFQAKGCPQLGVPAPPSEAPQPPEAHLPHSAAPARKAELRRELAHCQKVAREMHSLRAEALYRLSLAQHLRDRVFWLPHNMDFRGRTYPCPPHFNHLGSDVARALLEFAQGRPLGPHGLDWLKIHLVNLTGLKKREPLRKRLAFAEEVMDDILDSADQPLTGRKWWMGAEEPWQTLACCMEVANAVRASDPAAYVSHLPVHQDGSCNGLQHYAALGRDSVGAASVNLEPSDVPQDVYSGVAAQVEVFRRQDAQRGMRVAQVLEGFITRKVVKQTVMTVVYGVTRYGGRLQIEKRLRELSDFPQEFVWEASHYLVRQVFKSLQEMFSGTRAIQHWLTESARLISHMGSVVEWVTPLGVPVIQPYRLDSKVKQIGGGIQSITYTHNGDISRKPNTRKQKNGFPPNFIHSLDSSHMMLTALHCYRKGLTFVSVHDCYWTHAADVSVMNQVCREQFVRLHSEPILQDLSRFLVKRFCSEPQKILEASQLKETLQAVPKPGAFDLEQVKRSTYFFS
smiles,measurement,setting,value
N#C[C@]1(COP(=O)(O)OP(=O)(O)OP(=O)(O)O)O[C@@H](c2ccc3c(N)ncnn23)[C@H](O)[C@@H]1O [GS-646939],"Selectivity (fold), Vmax/Km ATP over Vmax/Km analog",[1],5.05 fold
same,Inhibition (fold) vs Template A,[2],~2 fold and 2.0 fold
same,UTP,[2],1.0 µM
same,Pattern of inhibition of RNA primer extension after incorporation at position i,[3],immediate chain-termination
same,Vmax (product fraction) of UTP incorporation at i + 1,[3],0.81 ± 0.017
same,"Selectivity (fold), Vmax/Km ATP over Vmax/Km analog",[4],1.37 fold
same,"Selectivity (fold), Vmax/Km ATP over Vmax/Km analog",[5],1.58 fold
same,Pattern of inhibition of RNA primer extension after incorporation at position i,[6],immediate chain termination
same,Vmax (product fraction) of UTP incorporation at i + 1,[6],0.61 ± 0.0099
same,CI average (CIavg) ± standard deviation,[7],0.07
same,Preference for GS-646939 over GS-443902 under competitive conditions,[7],greater than 30 fold
same,"Selectivity (fold), Vmax/Km ATP over Vmax/Km analog",[8],1.73 fold
same,Incorporated more efficiently than natural ATP counterpart,[9],20-50 fold
same,Vmax (product fraction) of UTP incorporation at i + 1,[10],0.91 ± 0.10
same,Inhibition (fold) of UTP incorporation across embedded analog,[11],~9 fold
same,Pattern of inhibition of RNA primer extension after incorporation at position i,[12],immediate chain termination
same,Vmax (product fraction) of UTP incorporation at i + 1,[12],0.15 ± 0.0029
same,Vmax (product fraction) of UTP incorporation at i + 1,[13],0.79 ± 0.036
same,Incorporated more efficiently than natural ATP counterpart,[14],20-50 fold
same,Pattern of inhibition of RNA primer extension after incorporation at position i,[15],immediate chain-termination
same,Vmax (product fraction) of UTP incorporation at i + 1,[15],0.83 ± 0.012
same,"Selectivity (fold), Vmax/Km ATP over Vmax/Km analog",[16],1538 fold
same,CI average (CIavg) ± standard deviation,[17],0.04
same,Preference for GS-646939 over GS-443902 under competitive conditions,[17],greater than 30 fold
same,"Selectivity (fold), Vmax/Km ATP over Vmax/Km analog",[18],1.17 fold
same,Pattern of inhibition of RNA primer extension after incorporation at position i,[19],immediate chain termination
same,Vmax (product fraction) of UTP incorporation at i + 1,[19],0.087 ± 0.030
same,Pattern of inhibition of RNA primer extension after incorporation at position i,[20],immediate chain termination
same,Vmax (product fraction) of UTP incorporation at i + 1,[20],0.058 ± 0.080
